Source: patent US12509421B2, “Preparation and application of deuterated 4-phenyl-4-piperidinols” (priority 2022, dated 2025)
Counter-ions that a name gives are not always drawn.

Assays:
μOR = biological target: T1, μOR (Homo sapiens, UniProt P35372); assay: Opioid receptor competitive binding test, μOR; details: compound at 10 μM; [3H]-labeled ligand; CHO cell membranes; ± SD of three measurements
T1 construct: expressed in transfected cells; host or cells: CHO cells
Summary of the method: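 Membranes came from CHO cells expressing each opioid receptor; 20-30 µg protein was incubated with 1-2 nM [3H]-ligand and compound for 30 min at 30°C in Tris-HCl pH 7.4. Nonspecific binding was defined with 1 µM corresponding ligand. Bound radioactivity was filtered and scintillation-counted, and IC50 was converted to Ki via Cheng-Prusoff.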

ICR mice = assay: Evaluation of side effects of constipation (defecation time, number, weight); format: in vivo; details: for Number of defecating animals: 10 mice per group; for Number of defecating animals / Fecal weight: within 5 hours; for Defecation time: first black stool; for Defecation time / water content of feces / Fecal weight: x ± SE; for Defecation time / water content of feces: only animals that defecate within 5 hours
Experimental: Constipation side effect is a common side effect of opioid drugs. This patent evaluates the possibility of constipation side effect by the influence of the compound on defecation time, defecation quantity and defecation weight of experimental animals.
ICR mice are randomly divided into 6 groups with 10 mice in each group after adaptive feeding. Fasting for 16-24 h, without stopping drinking, the blank control group is given solvent, during which the normal diet is: (1) the blank control group; (2) Compound diphenoxylate (7.5 mg/kg) group; (3) Low dose (1 mg/kg) group; (4) High dose (5 mg/kg) group of the compound to be tested.
After administration for 30 minutes, the mice in each group are given Chinese ink by gavage. After administration, the mice are kept in a single cage, and the excretion time of the first black stool is recorded. The number and weight (wet weight) of defecation particles in each mouse within 5 hours after administration are recorded. each group of mice are placed in an IVC cage with clean filter paper. The feces of each mouse are collected, put into a sterile 1.5 ml EP tube and stored in an ice box. During the collection, the number of defecation particles of each mouse is recorded, and the wet weight is weighed. After the collected feces are dried, the dry weight of the feces is recorded. Drying conditions: put fresh feces in an oven and bake at 100° C. for 5-10 minutes until the dry weight of feces is constant. The following formula is used to calculate the water content of feces, and the water content of feces (%)=(wet feces mass−dry feces mass)/wet feces mass×100%.
The data required for measurement and observation in this experiment are recorded in the corresponding table. All data are statistically processed by Microsoft Excel, and expressed as “mean standard error”. The data of each group are statistically analyzed by SPSS software package.

[1] = Metabolic stability in liver microsomes, human; details: human, microsomes, pH 7.4
Experimental: (§1) The solution B is slowly dropped into solution A, and the pH is adjusted to 7.40±0.05.
(§2) • Control drug: 4 μL Verapamil solution (10 mM) is added with 96 μL DMSO and diluted to 400 μM; • Compound to be tested: 4 μL compound to be tested (10 mM) is added with 96 μL normal saline and diluted to 400 μM.
(§3) The microsomes are stored in the refrigerator at −80° C., thawed at room temperature after being taken out, and mixed gently.
(§4) […] PBS (100 mm, pH=7.4) solution is added to the negative sample. The solution is put into water bath at 37° C. and pre-incubated for 10 minutes; • B) After incubation, 2 μL reference drug or compound to be tested (400 μM) are added into each well to start the reaction.

[2] = Metabolic stability in liver microsomes, dog; details: dog, microsomes, pH 7.4
Experimental: as §1, §2, §3, §4

CYP 3A4 = CYP 3A4 (Homo sapiens, UniProt P08684); assay: biochemical; details: CYP 3A4 IC50, human liver microsomes
CYP 3A4, sequence (P08684 whole entry): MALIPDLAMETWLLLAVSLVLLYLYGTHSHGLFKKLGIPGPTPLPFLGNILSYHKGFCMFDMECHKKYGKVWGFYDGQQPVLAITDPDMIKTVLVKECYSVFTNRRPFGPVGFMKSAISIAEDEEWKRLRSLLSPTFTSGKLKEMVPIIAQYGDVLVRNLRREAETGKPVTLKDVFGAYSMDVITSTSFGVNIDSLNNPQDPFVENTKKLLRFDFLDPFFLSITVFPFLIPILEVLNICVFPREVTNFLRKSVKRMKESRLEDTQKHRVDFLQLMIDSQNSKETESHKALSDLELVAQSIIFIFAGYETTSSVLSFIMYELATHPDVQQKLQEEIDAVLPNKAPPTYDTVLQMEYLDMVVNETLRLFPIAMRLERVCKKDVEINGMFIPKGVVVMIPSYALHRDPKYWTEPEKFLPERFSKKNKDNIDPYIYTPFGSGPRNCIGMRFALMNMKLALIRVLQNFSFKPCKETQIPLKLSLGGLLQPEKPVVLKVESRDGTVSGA

CYP 1A2 = biological target: T2, CYP 1A2 (Homo sapiens, UniProt P05177); assay: Inhibition of cytochrome P450 enzyme in human liver microsomes, CYP 1A2
T2 sequence (P05177 1-516): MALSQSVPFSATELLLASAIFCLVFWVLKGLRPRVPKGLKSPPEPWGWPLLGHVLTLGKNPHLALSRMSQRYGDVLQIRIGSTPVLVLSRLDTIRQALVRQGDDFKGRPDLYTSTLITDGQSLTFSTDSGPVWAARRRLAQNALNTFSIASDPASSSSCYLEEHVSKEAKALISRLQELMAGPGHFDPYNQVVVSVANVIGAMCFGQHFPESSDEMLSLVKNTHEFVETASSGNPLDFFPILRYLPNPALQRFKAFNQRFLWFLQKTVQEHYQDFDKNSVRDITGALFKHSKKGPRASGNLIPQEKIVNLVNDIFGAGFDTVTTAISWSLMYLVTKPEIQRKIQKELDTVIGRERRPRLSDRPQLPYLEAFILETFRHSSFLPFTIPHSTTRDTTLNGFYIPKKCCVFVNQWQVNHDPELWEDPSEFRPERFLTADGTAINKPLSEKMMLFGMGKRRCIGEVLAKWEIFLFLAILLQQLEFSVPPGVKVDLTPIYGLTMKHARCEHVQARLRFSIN

T1 sequence (P35372 whole entry): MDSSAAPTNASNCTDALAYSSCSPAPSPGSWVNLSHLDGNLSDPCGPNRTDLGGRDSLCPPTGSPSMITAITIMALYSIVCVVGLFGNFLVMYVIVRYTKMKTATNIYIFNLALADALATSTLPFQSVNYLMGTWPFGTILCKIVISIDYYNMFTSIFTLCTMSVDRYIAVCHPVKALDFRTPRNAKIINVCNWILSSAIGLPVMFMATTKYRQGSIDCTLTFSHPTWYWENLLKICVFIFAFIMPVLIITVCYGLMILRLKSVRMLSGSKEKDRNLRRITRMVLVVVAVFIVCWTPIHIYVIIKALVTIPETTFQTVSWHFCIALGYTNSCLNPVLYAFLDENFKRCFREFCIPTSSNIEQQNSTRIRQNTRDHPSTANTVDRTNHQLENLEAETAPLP

With `[2H]C([2H])([2H])N(C)C[C@@H]1CN(C(=O)Cc2cc(F)c(F)cc2F)CC[C@@]1(O)c1cccc(OC)c1` [II-7hydrochloride, 1-((3R,4S)-4-hydroxy-4-(3-methoxyphenyl)-3-(((methyl-d3)amino)methyl)-1-piperidinyl)-2(2,4,5-trifluorophenyl)ethyl-1-one] the μOR binding rate (μOR) was 26.1 ± 2.3%, the “Number of defecating animals” value (ICR mice; 1 mg/kg) was 9 and the Defecation time (ICR mice; 1 mg/kg) was 109.0 ± 8.8 min. The “water content of feces” value (ICR mice; 1 mg/kg) was 44.8 ± 3.2%, the Fecal weight (ICR mice; 1 mg/kg) was 0.3846 ± 0.0798 g and the “Number of defecating animals” value (ICR mice; 5 mg/kg) was 3. For the same compound, the Defecation time (ICR mice; 5 mg/kg) was 200.6 ± 7.9 min, the “water content of feces” value (ICR mice; 5 mg/kg) was 38.6 ± 7.9% and the Fecal weight (ICR mice; 5 mg/kg) was 0.0612 ± 0.0079 g. It also gave a half-life at 2 μM [1] of 5.42 min, a microsomal CLint at 2 μM [1] of 681 µL/min/mg and a half-life at 2 μM [2] of 5.25 min. The microsomal CLint at 2 μM [2] was 669 µL/min/mg, the IC50 (CYP 3A4; substrate midazolam) was 49.7 µM and the IC50 (CYP 3A4; substrate testosterone) was 47.5 µM. The IC50 (CYP 1A2) was > 50 µM.
